From ChEMBL document CHEMBL1201862, “PubChem BioAssay data set” (2004) come the findings set out here.

Molecules are shown by their SMILES.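 Values below derive from 48-hour exposures of cells grown in 96-well plates, with endpoints linearly interpolated between the two concentrations bracketing the appropriate inhibition level. Here, GI50 denotes the concentration required for 50% inhibition of growth.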 The source made the active and inactive calls. Rule as the data show it: active = GI50 up to about 1.1 µM and inactive = higher. Peptide text beside a SMILES is read from it. * marks the point of attachment. Boc = CC(C)(C)OC(=O)*; OBn = c1ccc(CO*)cc1

Holding throughout (assay): inhibition of tumour cell growth, NCI panel, 48 h
Assay [1] deals with 786-0.
In assay [2] the test system is CCRF-CEM.
Assay [3] has as its system HCC 2998.
Assay [4] deals with HCT-15.
In assay [5] the test system is HL-60.
Assay [6] relates to MDA-N.
The test system of assay [7] is NCI-H460.
Assay [8] concerns NCI-H522.
Assay [9] deals with OVCAR-3.
In assay [10] the test system is OVCAR-8.
For assay [11], the system named is SK-MEL-2.
Assay [12] relates to SK-OV-3.
For assay [13], the system named is SN12C.
For assay [14], the system named is SNB-19.
Assay [15] deals with SW-620.
Assay [16] concerns T47D.
Assay [17] deals with TK-10.
Assay [18] has as its system UACC-257.
Assay [19] concerns UACC-62.

Consider `C=C1C(=O)OC2C1CCC(=C)C1CC(O)C(=C)C12` (stereo not drawn), for which the GI50 is 5.5 µM (inactive) in [1]; 2.21 µM (inactive) in assay [2]; 14.3 µM (inactive) in assay [3]; 10.8 µM in assay [4]; 1.82 µM (inactive) in [5]; 11 µM (inactive) in assay [6]. Besides, the GI50 was 18 µM (inactive) in assay [7]; 2.58 µM (inactive) in [8]; 13.3 µM (inactive) in [9]; 24.9 µM (inactive) in assay [10]; 14.3 µM (inactive) in assay [11]; 33.8 µM (inactive) in assay [12]. In addition, the GI50 in assay [13] is 16.2 µM (inactive); in assay [14] it was 23.8 µM (inactive); in assay [15], 16 µM (inactive); in assay [16], 20.7 µM (inactive); in assay [17], 8.02 µM (inactive); in assay [18], 12.9 µM (inactive). In addition, the GI50 in assay [19] is 13.5 µM (inactive).

As for `CCCNC(=O)Cn1c(C)cc2ccccc21`, the GI50 is > 100 µM (inactive) in [1]; > 100 µM (inactive) in assay [2]; > 100 µM (inactive) in [3]; more than 100 µM in assay [4]; > 100 µM (inactive) in assay [5]; > 100 µM (inactive) in assay [6]. The GI50 was > 10 µM (inactive) in [7]; > 100 µM (inactive) in assay [8]; > 100 µM (inactive) in [9]; > 100 µM (inactive) in assay [10]; > 100 µM (inactive) in assay [11]; > 100 µM (inactive) in assay [12]. Further, the GI50 in [13], in [14], in assay [15], in assay [16], in [17] and in [18] was > 100 µM (inactive) throughout. Further, the GI50 in [19] was > 100 µM (inactive).

Consider `COc1cccc(C2c3cc4c(cc3OC(NNS(=O)(=O)c3ccc(C)cc3)C2C)OCO4)c1OC` (stereo not drawn), for which the GI50 in assay [1] is 22.2 µM (inactive); in assay [2], 2.03 µM (inactive); in [3], 5.36 µM (inactive); in [4], 2.65 µM; in assay [5], 1.42 µM (inactive); in [6] it was 3.37 µM (inactive). Besides, the GI50 is 2.67 µM (inactive) in assay [7]; 1.88 µM (inactive) in assay [8]; 1.75 µM (inactive) in assay [9]; 27.4 µM (inactive) in assay [10]; 2.31 µM (inactive) in assay [11]; 2.59 µM (inactive) in assay [12]. For the same molecule, the GI50 in assay [13] is 3.2 µM (inactive); in [14], 3.59 µM (inactive); in assay [15], 3.08 µM (inactive); in [16] it was 3.44 µM (inactive); in assay [17], 4.46 µM (inactive); in assay [18], 2.7 µM (inactive). Further, the GI50 in [19] was 3.75 µM (inactive).

On to `C[As](C)SCC(NC(=O)CCC(N)C(=O)O)C(=O)NCC(=O)O.c1ccncc1` (stereo not drawn), for which the GI50 in assay [1] was 0.0891 µM (active); in assay [2], 0.0492 µM (active); in assay [3], 0.188 µM (active); in assay [4], 0.0702 µM; in [5], 0.0578 µM (active); in assay [6], 0.0431 µM (active). Besides, the GI50 in [7] is 2.38 µM (inactive); in assay [8], 0.0824 µM (active); in assay [9], 0.0399 µM (active); in assay [10] it was 0.231 µM (active); in assay [11] it was 0.338 µM (active); in assay [12] it was 7.31 µM (inactive). Moreover, the GI50 in assay [13] was 0.506 µM (active); in assay [14], 3.68 µM (inactive); in assay [15], 0.0855 µM (active); in assay [16], 0.0938 µM (active); in [17], 0.202 µM (active); in assay [18], 0.459 µM (active). The GI50 in assay [19] was 0.269 µM (active).

Take `O=C(O)c1cc(/N=N/c2ccc([N+](=O)[O-])cc2)ccc1O`: the GI50 in [1] is 34.3 µM (inactive); in assay [2], 28.4 µM (inactive); in assay [3], 18.7 µM (inactive); in assay [4], 31.8 µM; in assay [5], 29 µM (inactive); in assay [6], 43.9 µM (inactive). Moreover, the GI50 in [7] was 28.2 µM (inactive); in [8] it was 28 µM (inactive); in assay [9], 15.6 µM (inactive); in [10], 33.4 µM (inactive); in assay [11], 26.5 µM (inactive); in [12], 81.7 µM (inactive). For the same molecule, the GI50 in assay [13] is 30.8 µM (inactive); in assay [14], 30.9 µM (inactive); in assay [15], 36 µM (inactive); in assay [16], 42.6 µM (inactive); in [17] it was 25.6 µM (inactive); in assay [18], 24 µM (inactive). The GI50 in assay [19] is 31.3 µM (inactive).

For the molecule `C[n+]1c(-c2ccc(/C=N/NC(=O)c3ccc(C(=O)N/N=C/c4ccc(-c5cn6ccccc6[n+]5C)cc4)cc3)cc2)cn2ccccc21`, the GI50 in assay [1] was 13.9 µM (inactive); in assay [2], > 34.3 µM (inactive); in assay [3], > 100 µM (inactive); in assay [4] it was more than 100 µM; in assay [5] it was > 100 µM (inactive); in [6], > 70 µM (inactive). The GI50 in [7], in assay [8], in [9], in assay [10], in assay [11] and in assay [12] was > 100 µM (inactive) throughout. The GI50 in assay [13] was > 100 µM (inactive); in assay [14] it was > 100 µM (inactive); in assay [15], > 100 µM (inactive); in [16], > 100 µM (inactive); in [17], > 83.4 µM (inactive); in assay [18], > 63.7 µM (inactive). The GI50 in assay [19] was > 81.8 µM (inactive).

With `CC(NC(=O)C(NC(=O)OC(C)(C)C)C(C)C)C(=O)N1CCCC1C(=O)NCC(=O)NC(C(=O)NCC(=O)OCc1ccccc1)C(C)C` (stereo not drawn) (Boc-VAPGVG-OBn; configuration not given here), the GI50 was > 100 µM (inactive) in assay [1]; > 100 µM (inactive) in [2]; > 100 µM (inactive) in assay [3]; more than 100 µM in [4]; > 100 µM (inactive) in [5]; > 100 µM (inactive) in assay [6]. The GI50 in [7], in assay [8], in [9], in assay [10], in [11] and in assay [12] was > 100 µM (inactive) each time. Also, the GI50 in assay [13], in assay [14], in assay [15], in [16], in assay [17] and in [18] was > 100 µM (inactive) throughout. In addition, in assay [19], the GI50 is 66.4 µM (inactive).
